Counter-ions that a name gives are not always drawn. Like-named read-outs stand apart in the source and are kept apart here.
System: apomorphine-induced emesis
Assay: animal or person
Format: in vivo, beagle dogs
Conditions: Canis lupus familiaris, sc, 1 h

Row | Structure (SMILES) | ED50 (read-out: ED50 (APO)-dog) | ED50 (read-out: ED50 (APO)dog)
1 | CC(=O)CCN1CN(c2ccc(F)cc2)C2(CCN(C3CCC(C#N)(c4ccc(F)cc4)CC3)CC2)C1=O (single isomer, unassigned) [CH2 CH2 COCH3, B, HCl . H2 O] | 2 µg/kg | 
2 | NC(=O)C1(c2ccc(F)cc2)CCC(N2CCC3(CC2)C(=O)NCN3c2ccc(F)cc2)CC1 (centres unmarked) [CONH2,4-FC6 H4,4-FC6 H4, B, base, (B)-1-(4-fluorophenyl)-4-[1-(4-fluorophenyl)-4-oxo-1,3,8-triazaspiro[4,5]dec-8-yl]cyclohexanecarboxamide] |  | 8 µg/kg
3 | N#CC1(c2ccc(F)cc2)CCC(N2CCC3(CC2)C(=O)N(C(=O)Nc2ccccc2)CN3c2ccc(F)cc2)CC1 (centres unmarked) [CONHC6 H5, B, base, (B)-8-[4-cyano-4-(4-fluorophenyl)cyclohexyl]-1-(4-fluorophenyl)-4-oxo-N-phenyl-1,3,8-triazaspiro[4,5]decane-3-carboxamide] | < 160 µg/kg | 
4 | COC(=O)C1(c2ccc(F)cc2)CCC(N2CCC3(CC2)C(=O)NCN3c2ccc(F)cc2)CC1 (centres unmarked) [COOCH3,4-FC6 H4,4-FC6 H4, base] |  | 1.8 µg/kg
5 | CNC(=S)N1CN(c2ccc(F)cc2)C2(CCN(C3CCC(C#N)(c4ccc(F)cc4)CC3)CC2)C1=O (centres unmarked) [CSNHCH3, base, (B)-8-[4-cyano-4-(4-fluorophenyl)cyclohexyl]-1-(4-fluorophenyl)-N-methyl-4-oxo-1,3,8-triazaspiro[4,5]decane-3-carbothioamide] | < 4 µg/kg | 

Reference: US4329353A (priority 1981, dated 1982)
